Reference: US6413537B1, “Nystatin formulation having reduced toxicity” (Wisconsin Alumni Research Foundation, priority 2000, dated 2002)
≈ marks a conversion by molar mass, not a printed value. Read-outs that look alike come from different tables or passages of the source.

How the values were obtained:
[1] = Monomerizing (light scattering) effect of various surfactants on nystatin; format: physicochemical; settings: nystatin kept constant at 200 μM; FIG. 7
Description: Nystatin formulations were prepared with various surfactants similar to the method of Example 1. The concentration of drug was kept constant at 200 μM. The intensity of the scattered light was measured using a fluorimeter with a fixed excitation wavelength of […].

[2] = system: erythrocytes (red blood cells)
[3] = Solubility measurement of freeze-dried nystatin formulations (NF) in distilled water; format: physicochemical; settings: vortex mixed 5 min, 0.45 μm filtered, absorption at 307 nm
Description: An excess amount of each NF formulation from Example 1 was placed into 0.5 mL of distilled water, and mixed vigorously for 5 min with a vortex mixer. After filtering the slurry with a 0.45 μm syringe filter, the filtrate was diluted with dimethylformamide (DMF) for analysis. The amount of nystatin in each NF composition was calculated by absorption spectroscopy at 307 nm.

[4] = Critical aggregation concentration (CAC) of nystatin by light scattering; format: physicochemical
Description: Nystatin (16 mg) was dissolved into 0.3 mL of dimethylsulfoxide (DMSO) under light protection, and was added into 15 mL of various aqueous Pluronic F127® solutions ranging from 0.1%-2.0%, making a 1100 μM nystatin solution. Each solution was serially diluted with the corresponding Pluronic F127® solution until a 3.8 μM nystatin concentration was obtained. After incubation at 37° C. for 30 min, each solution was subjected to light scattering using fluorimeter with fixed excitation wavelength of 450 nm. Band widths for excitation and emission were set at 3 nm and 1.5 nm, respectively. […] The intersection point of two linear lines was defined as the critical aggregation concentration (CAC) where self-aggregation of nystatin molecules begins, leading to an abrupt increase of intensity of scattered light.

[5] = system: Saccharomyces cerevisiae, ATCC 4921; assay: Minimal inhibitory concentration (MIC) in YPD broth; format: cell-based; settings: 30° C., 24 hr, full inhibition by optical density at 600 nm
Description: NF samples were dissolved into DMSO and diluted with Bacto® YPD broth medium (10 g of Bacto® YPD in 200 mL of distilled water, and sterilized at 121° C.-124° C.), to give a nystatin level of 8 μg/mL. Nystatin levels were varied by serial dilution with broth medium to a level of 0.1 μg/mL. An aliquot (800 μL) of each nystatin sample was put into a microcentrifuge tube. 50 μL of the inoculum, containing 5×10^3 cfu/mL of Saccharomyces cerevisiae, ATCC 4921, in sterile distilled water, was added to each tube to give a total volume of 850 μL per tube. The tubes were incubated at 30° C. for 24 hr. A solvent control, Pluronic F127® control, and medium control were performed simultaneously to check the growth inhibiting activities of DMSO and Pluronic F127® as well as the sterility of the broth medium. […] The MIC for the nystatin formulations in accordance with the present invention was determined to be 3 μg/mL. The MIC of nystatin alone for Saccharomyces cerevisiae is about 3 μg/mL.

Saccharomyces cerevisiae = assay: Minimal fungicidal concentration (MFC); format: cell-based; settings: 2 hrs contact at 37° C., no colony on YPD agar plate after 24 hr at 30° C.
Description: For measurement of minimal fungicidal concentration (MFC), the same procedure as the MIC measurement was employed up to the incubation step. Tubes containing Saccharomyces cerevisiae were placed in an incubator at 37° C. for 2 hrs., so that the cells might be killed. After 2 hrs. contact with the sample, the surviving cells were precipitated on the bottom of the tube by centrifugation (12000 g, 20 sec), and the supernatant decanted. […] All experiments were repeated three times. The MFC for the compositions in accordance with the present invention was determined to be 3 μg/mL.

Row | Compound | surfactant level showing deaggregating activity (decrease of light scattering intensity) [1] | concentration of surfactant alone causing 50% hemolysis [2] | Solubility [3] [µg/mL] | Solubility ([3]; listed as pure nystatin) [µg/mL] | CAC ([4]; distilled water alone) [µM] | CAC ([4]; distilled water containing 0.1% Pluronic F127, 37° C. 30 min) [µM] | CAC ([4]; distilled water containing 0.5% Pluronic F127, 37° C. 30 min) [µM] | CAC ([4]; distilled water containing 1.0% Pluronic F127, 37° C. 30 min) [µM] | CAC ([4]; distilled water containing 1.5% Pluronic F127, 37° C. 30 min) [µM] | CAC ([4]; distilled water containing 2.0% Pluronic F127, 37° C. 30 min) [µM] | minimal inhibitory concentration (MIC) [5] | minimal fungicidal concentration (MFC) (Saccharomyces cerevisiae) [µg/mL] | concentration of nystatin causing 50% hemolysis ([2]; PBS pH 7.0 containing 0.1% Pluronic F127, FIG. 4) [µg/mL] | concentration of nystatin causing 50% hemolysis ([2]; PBS pH 7.0 containing 2% Pluronic F127, FIG. 4) [µg/mL] | 50% hemolysis inducing level of Nys ([2]; Table 1, erythrocytes in isotonic PBS, 37° C., 30 min) [µg/mL] | concentration of nystatin causing 50% hemolysis ([2]; isotonic PBS, FIG. 3)
1 | sorbitan mono-9-octadecanoate [Tween 80®] | about 100 μM | less than 50 μg/mL | – | – | – | – | – | – | – | – | – | – | – | – | – | –
2 | C[C@@H]1[C@H](O)[C@@H](C)/C=C/C=C/CC/C=C/C=C/C=C/C=C/C(O[C@H]2O[C@H](C)[C@@H](O)[C@H](N)[C@@H]2O)CC2O[C@](O)(CC(O)C(O)CCC(O)CC(O)CC(O)CC(=O)O[C@H]1C)CC(O)C2C(=O)O (stereo partly shown) [pure Nys, Nystatin] | – | – | 540 (≈ 583 µM) | 500 (≈ 540 µM) | 52.8 | 50.1 | 108.0 | 134.2 | 154.3 | 217.9 | about 3 μg/mL | 12 (≈ 13 µM) | ~120 | ~270 | 60 | about 55 μg/mL
